Here are results for 4 compounds from BindingDB's records for doi:10.1016/j.bmcl.2021.128263 (A*Star, 2021).

The pKi is −log10 of the Ki, conventionally taken in molar units. Low values mean a high Ki, high ones a low Ki. A word on the pIC50: it is the negative decadic logarithm of the IC50, by convention in mol/L. The low end stands for a high IC50, the high end for a low IC50.

This experiment deals with Replicase polyprotein 1ab (Severe acute respiratory syndrome coronavirus, UniProt P0C6X7). The experiment is described as follows: Literature assay.

The structures appear in SMILES notation. pIC50, pKi: −log10 of the molar value.

Consider `CC(OC(C)(C)C)[C@H](NC(=O)OCc1ccccc1)C(=O)N[C@@H](CC1CCCCC1)C(=O)N[C@H](C=O)CC1CCNC1=O` (some centres undefined) [TG-0205221], for which the pKi was 7.28. `CC(C)C[C@H](NC(=O)[C@@H](NC(=O)OCc1ccccc1)C(C)C)C(=O)N[C@@H](C[C@@H]1CCNC1=O)C(=O)c1nc2ccccc2s1` [peptidomimetic coronavirus 3CLpro inhibitors 2i] showed a pIC50 of 5.77. Still for that read-out and setting: then `CC(C)C[C@H](NC(=O)OCc1ccccc1)C(=O)N[C@@H](C[C@@H]1CCNC1=O)C(=O)c1nc2ccccc2s1` [peptidomimetic coronavirus 3CLpro inhibitors 25c], with 3.68; and `CC(C)C[C@H](NC(=O)[C@@H](NC(=O)OCc1ccccc1)C(C)C)C(=O)N[C@@H](C[C@@H]1CCNC1=O)C(=O)C(=O)N(C)C` [peptidomimetic coronavirus 3CLpro inhibitors 17], with 8.15.
